Calls of active or inactive are those of the source. No cut-off for these calls is given here.
Columns and labels:
Micrococcus luteus [1] = assay: Antibacterial activity against Micrococcus luteus NRRLB 4375 after 24 hr by disk diffusion method; type: functional
Priestia megaterium [2] = assay: Antibacterial activity against Bacillus megaterium ATCC 6633 after 24 hr by disk diffusion method; type: functional
Staphylococcus aureus [3] = assay: Antibacterial activity against Staphylococcus aureus ATCC 25923 after 24 hr by disk diffusion method; type: functional
Bacillus subtilis [4] = assay: Antibacterial activity against Bacillus subtilis RSKK 244 after 24 hr by disk diffusion method; type: functional
Escherichia coli [5] = assay: Antibacterial activity against Escherichia coli ATCC […] at 5 mg/ml after 24 hr by disk diffusion method; type: functional; settings: read-out: DIZ
Pseudomonas aeruginosa [6] = assay: Antibacterial activity against Pseudomonas aeruginosa ATCC […] at 5 mg/ml after 24 hr by disk diffusion method; type: functional; settings: for zone of inhibition at 5000 µg/mL: read-out: DIZ
Listeria monocytogenes [7] = assay: Antibacterial activity against Listeria monocytogenes ATCC 7644 at 5 mg/ml after 24 hr by disc diffusion method; type: functional; settings: for zone of inhibition at 5000 µg/mL: ATCC 7644, 24 h, read-out: DIZ
Salmonella enteritidis [8] = assay: Antibacterial activity against Salmonella enterica subsp. enterica serovar Enteritidis ATCC 1376 at 5 mg/ml after 24 hr by disk diffusion method; type: functional; settings: for zone of inhibition at 5000 µg/mL: ATCC 1376, 24 h, read-out: DIZ
Priestia megaterium [9] = assay: Antibacterial activity against Bacillus megaterium ATCC 6633 at 5 mg/ml after 24 hr by disk diffusion method; type: functional
Bacillus subtilis [10] = assay: Antibacterial activity against Bacillus subtilis RSKK 244 at 5 mg/ml after 24 hr by disk diffusion method; type: functional; settings: for zone of inhibition at 5000 µg/mL: RSKK 244, 24 h, read-out: DIZ
Micrococcus luteus [11] = assay: Antibacterial activity against Micrococcus luteus NRRLB 4375 at 5 mg/ml after 24 hr by disk diffusion method; type: functional; settings: for zone of inhibition at 5000 µg/mL: NRRLB 4375, 24 h, read-out: DIZ
Staphylococcus aureus [12] = assay: Antibacterial activity against Staphylococcus aureus ATCC 25923 at 5 mg/ml after 24 hr by disk diffusion method; type: functional; settings: ATCC 25923, 24 h, read-out: DIZ
Escherichia coli [13] = assay: Antibacterial activity against Escherichia coli ATCC […] after 24 hr by disk diffusion method; type: functional
Salmonella enteritidis [14] = assay: Antibacterial activity against Salmonella enterica subsp. enterica serovar Enteritidis ATCC 1376 after 24 hr by disk diffusion method; type: functional, organism-based
Pseudomonas aeruginosa [15] = assay: Antibacterial activity against Pseudomonas aeruginosa ATCC […] after 24 hr by disk diffusion method; type: functional, organism-based
Listeria monocytogenes [16] = assay: Antibacterial activity against Listeria monocytogenes ATCC 7644 after 24 hr by disk diffusion method; type: functional, organism-based

Compound | diameter of the inhibition zone (DIZ) (Micrococcus luteus [1]) [mm] | zone of inhibition at 5000 µg/mL (Escherichia coli [5]) [mm] | diameter of the inhibition zone (DIZ) (Priestia megaterium [9]) | zone of inhibition at 5000 µg/mL (Staphylococcus aureus [12]) [mm] | zone of inhibition at 5000 µg/mL (Pseudomonas aeruginosa [6]) [mm] | zone of inhibition at 5000 µg/mL (Listeria monocytogenes [7]) [mm] | zone of inhibition at 5000 µg/mL (Salmonella enteritidis [8]) [mm] | zone of inhibition at 5000 µg/mL (Bacillus subtilis [10]) [mm] | zone of inhibition at 5000 µg/mL (Micrococcus luteus [11]) [mm] | further results
CN(C)[C@@H]1C(O)=C(C(N)=O)C(=O)[C@@]2(O)C(O)=C3C(=O)c4c(O)cccc4[C@@](C)(O)[C@H]3C[C@@H]12 [TETRACYCLINE] | 9 |  |  |  |  |  |  |  |  | 
CC1(C)S[C@@H]2[C@H](NC(=O)[C@H](N)c3ccccc3)C(=O)N2[C@H]1C(=O)O [AMPICILLIN] | 28 |  |  |  |  |  |  |  |  | diameter of the inhibition zone (DIZ) (Priestia megaterium [2]): 10 mm; diameter of the inhibition zone (DIZ) (Staphylococcus aureus [3]): 9 mm; diameter of the inhibition zone (DIZ) (Bacillus subtilis [4]): 15 mm
CCC1C(C#N)=C(c2cccs2)OC1(c1ccccc1)c1ccccc1 (stereo not given) |  | 10 | inactive | 8 |  |  |  |  |  | diameter of the inhibition zone (DIZ) (Pseudomonas aeruginosa [6]): inactive; diameter of the inhibition zone (DIZ) (Listeria monocytogenes [7]): inactive; diameter of the inhibition zone (DIZ) (Salmonella enteritidis [8]): inactive; diameter of the inhibition zone (DIZ) (Bacillus subtilis [10]): inactive; diameter of the inhibition zone (DIZ) (Micrococcus luteus [11]): inactive
CCC1C(C#N)=C(c2ccco2)OC1(c1ccccc1)c1ccccc1 (stereo not given) |  | 13 |  | 10 | 12 | 16 | 10 | 11 | 14 | zone of inhibition at 5000 µg/mL (Priestia megaterium [9]; ATCC 6633, 24 h, read-out: DIZ): 10 mm
CCC1C(C#N)=C(c2ccccc2)OC1(c1ccccc1)c1ccccc1 (stereo not given) |  | 11 | inactive | 13 | 12 | 11 | 13 | 11 | 13 | 
CC1(C)S[C@@H]2[C@H](NC(=O)Cc3ccccc3)C(=O)N2[C@H]1C(=O)O [PENICILLIN G] | 31 |  |  |  |  |  |  |  |  | diameter of the inhibition zone (DIZ) (Escherichia coli [13]): 19 mm
CCCC1(c2ccccc2)OC(c2ccccc2)=C(C#N)C1c1ccccc1 (stereo not given) |  | 12 | inactive | 14 | 10 | 18 | 16 | 10 | 13 | 
CCCC1(c2ccccc2)OC(c2cc3ccccc3o2)=C(C#N)C1c1ccccc1 (stereo not given) |  | 10 | inactive | 12 | 10 | 13 | 14 | 11 | 13 | 
GENTAMICIN |  |  |  |  |  |  |  |  |  | inhibition zone (IZ) (Salmonella enteritidis [14]): 9 mm; inhibition zone (IZ) (Pseudomonas aeruginosa [15]): 16 mm; inhibition zone (IZ) (Listeria monocytogenes [16]): 10 mm
